ChEMBL document CHEMBL4304747, “Structural Tailoring of a Novel Fluorescent IRE-1 RNase Inhibitor to Precisely Control Its Activity” (J Med Chem, 2019)
Blank lines part the entries; values can stand above or below the molecule they belong to. Calls of active or inactive are those of the source. The calls are words filed in the database; no cut-off is given here.

Assays:
[1] = Drug metabolism in RPMI media assessed as hydrolysis at measured up to 25 hrs by HPLC analysis
[2] = molecular target: Serine/threonine-protein kinase/endoribonuclease IRE1 (Mus musculus) (UniProt Q9EQY0); experiment: Binding affinity to IRE1 in mouse 5TGM1 cells assessed as inhibition of IRE1/XBP1 pathway activation by measuring reduction in XBP1s expression at 10 uM measured after 3 days by immunoblot analysis; type: cell-based
[3] = molecular target: Serine/threonine-protein kinase/endoribonuclease IRE1 (Mus musculus) (UniProt Q9EQY0); experiment: Binding affinity to IRE1 in mouse 5TGM1 cells assessed as inhibition of IRE1/XBP1 pathway activation by measuring reduction in XBP1s expression at 2.5 uM measured up to 4 hrs by immunoblot analysis; type: cell-based
[4] = molecular target: Serine/threonine-protein kinase/endoribonuclease IRE1 (Mus musculus) (UniProt Q9EQY0); experiment: Binding affinity to IRE1 in LPS-stimulated mouse primary B cells assessed as inhibition of IRE1/XBP1 pathway activation by measuring reduction in XBP1s expression at 2.5 to 5 uM measured after 2 hrs by immunoblot analysis
Homo sapiens [5] = species: Homo sapiens; experiment: Cytotoxicity against human WaC3 cells assessed as growth inhibition at 20 uM measured after 3 days by XTT assay; type: functional, cell-based
[6] = Stability in PBS/DMSO assessed as increase in fluorescence intensity at 10 uM; type: physicochemical; details: buffer
Homo sapiens [7] = species: Homo sapiens; experiment: Cytotoxicity against human WaC3 cells assessed as growth inhibition at 20 uM measured after 1 day by XTT assay; type: functional, cell-based
[8] = Stability in PBS/DMSO assessed as change in fluorescence intensity at 10 uM; type: physicochemical; details: buffer
[9] = molecular target: Serine/threonine-protein kinase/endoribonuclease IRE1 (Mus musculus) (UniProt Q9EQY0); experiment: Binding affinity to IRE1 in mouse 5TGM1 cells assessed as inhibition of IRE1/XBP1 pathway activation by measuring reduction in XBP1s expression at 10 uM measured up to 24 hrs by immunoblot analysis; type: cell-based
5TGM1 [10] = experiment: Cytotoxicity against mouse 5TGM1 cells assessed as growth inhibition at 20 uM measured after 4 days by XTT assay; type: functional, cell-based
[11] = molecular target: Serine/threonine-protein kinase/endoribonuclease IRE1 (Mus musculus) (UniProt Q9EQY0); experiment: Binding affinity to IRE1 in mouse 5TGM1 cells assessed as inhibition of IRE1/XBP1 pathway activation by measuring reduction in XBP1s expression at 5 uM measured after 24 hrs by immunoblot analysis; type: cell-based
[12] = Stability in PBS/DMSO assessed as compound decomposition by measuring decrease in fluorescence intensity at 10 uM measured after 48 hrs; type: physicochemical; details: read-out: Drug degradation
[13] = molecular target: Serine/threonine-protein kinase/endoribonuclease IRE1 (Mus musculus) (UniProt Q9EQY0); experiment: Binding affinity to IRE1 in mouse 5TGM1 cells assessed as inhibition of IRE1/XBP1 pathway activation by measuring reduction in XBP1s expression at 10 uM measured after 2 days by immunoblot analysis; type: cell-based
5TGM1 [14] = experiment: Cytotoxicity against mouse 5TGM1 cells assessed as growth inhibition at 20 uM measured after 3 days by XTT assay; type: functional, cell-based
[15] = Stability in PBS/DMSO assessed as increase in fluorescence intensity at 10 uM at 365 nm light illumination by fluorescence imaging analysis
[16] = Prodrug conversion in DMSO/PBS solution assessed as DF07 formation by measuring increase in fluorescence intensity at 10 uM irradiated with 1 mW/cm2 UV light relative to control; type: ADME
[17] = Prodrug conversion in cytoplasm of mouse 5TGM1 cells assessed as DF07 formation by measuring increase in fluorescence intensity at 10 uM treated for 4 hrs measured 10 secs post irradiation with 50 mW DAPI filtered diode laser by confocal microscopic analysis; type: ADME, subcellular; details: 5tgm1, 4 h
[18] = molecular target: Serine/threonine-protein kinase/endoribonuclease IRE1 (Mus musculus) (UniProt Q9EQY0); experiment: Binding affinity to IRE1 in mouse 5TGM1 cells assessed as inhibition of IRE1/XBP1 pathway activation by measuring reduction in XBP1s expression at 10 uM irradiated with 1 mW/cm2 UV light for up to 10 mins and measured after 4 hrs by immunoblot analysis; type: cell-based
[19] = molecular target: Serine/threonine-protein kinase/endoribonuclease IRE1 (Mus musculus) (UniProt Q9EQY0); experiment: Binding affinity to IRE1 in mouse 5TGM1 cells assessed as inhibition of IRE1/XBP1 pathway activation by measuring reduction in XBP1s expression at 10 uM measured after 4 hrs by immunoblot analysis; type: cell-based
[20] = Stability in pH 7.4 PBS/DMSO measured after 48 hrs by HPLC analysis; type: physicochemical; details: buffer, pH 7.4, 48 h
[21] = Stability in RPMI media measured after 96 hrs by HPLC analysis; type: physicochemical
[22] = molecular target: Serine/threonine-protein kinase/endoribonuclease IRE1 (Mus musculus) (UniProt Q9EQY0); experiment: Binding affinity to IRE1 in mouse 5TGM1 cells assessed as inhibition of IRE1/XBP1 pathway activation by measuring reduction in XBP1s expression at 10 uM preincubated for 4 hrs followed by three times compound washout and subsequent 1 mW/cm2 UV irradiation for 10 mins measured after 8 hrs by immunoblot analysis; type: cell-based
[23] = Stability in PBS/DMSO assessed as change in fluorescence intensity at 10 uM at 460 nm; type: physicochemical; details: buffer
[24] = Drug metabolism in pH 7.4 PBS/DMSO assessed as 1,3-dioxane acetal hydrolysis measured after 48 hrs by HPLC analysis
[25] = Drug metabolism in RPMI media assessed as 1,3-dioxane acetal hydrolysis measured after 96 hrs by HPLC analysis

Chain of Serine/threonine-protein kinase/endoribonuclease IRE1 (Mus musculus) (Q9EQY0 whole entry): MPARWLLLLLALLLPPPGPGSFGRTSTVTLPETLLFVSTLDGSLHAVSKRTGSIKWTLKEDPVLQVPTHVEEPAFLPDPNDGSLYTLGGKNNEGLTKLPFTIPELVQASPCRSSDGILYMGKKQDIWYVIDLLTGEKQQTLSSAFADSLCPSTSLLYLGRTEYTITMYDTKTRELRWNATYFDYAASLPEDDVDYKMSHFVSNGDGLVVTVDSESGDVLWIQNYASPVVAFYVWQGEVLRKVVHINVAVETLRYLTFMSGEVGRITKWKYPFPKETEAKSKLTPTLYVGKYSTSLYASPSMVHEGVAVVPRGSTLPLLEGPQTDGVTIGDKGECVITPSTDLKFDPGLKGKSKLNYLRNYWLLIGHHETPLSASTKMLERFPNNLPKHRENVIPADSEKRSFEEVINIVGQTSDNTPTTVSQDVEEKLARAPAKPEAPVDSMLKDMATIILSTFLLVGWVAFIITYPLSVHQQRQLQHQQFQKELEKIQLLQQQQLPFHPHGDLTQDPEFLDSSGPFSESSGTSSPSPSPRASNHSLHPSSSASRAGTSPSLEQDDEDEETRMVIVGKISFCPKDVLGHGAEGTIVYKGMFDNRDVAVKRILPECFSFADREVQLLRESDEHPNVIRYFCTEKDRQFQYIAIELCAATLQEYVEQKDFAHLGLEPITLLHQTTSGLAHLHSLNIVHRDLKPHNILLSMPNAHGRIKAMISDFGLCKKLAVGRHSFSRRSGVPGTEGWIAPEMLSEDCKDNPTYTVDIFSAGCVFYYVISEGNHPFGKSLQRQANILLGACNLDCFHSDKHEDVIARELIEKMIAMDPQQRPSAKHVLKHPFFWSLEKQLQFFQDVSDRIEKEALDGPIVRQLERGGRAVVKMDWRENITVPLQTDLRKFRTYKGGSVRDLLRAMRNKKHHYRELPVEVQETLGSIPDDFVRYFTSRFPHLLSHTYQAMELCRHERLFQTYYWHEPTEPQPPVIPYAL

SMILES: C=CCOC(=O)N1CCc2c(c(=O)oc3c(C=O)c(O)ccc23)C1
- inhibition [9]: Active

SMILES: CN1CCc2c(c(=O)oc3c(C=O)c(O)ccc23)C1
- inhibition [9]: Active
- growth inhibition (GI) (5TGM1 [10]): Active
- inhibition [13]: inactive
- growth inhibition (GI) (5TGM1 [14]): Active
- Stability [6]: Stable
- Stability [15]: Stable

SMILES: COc1cc2c3c(c(=O)oc2c(C2OCCCO2)c1OC(C)c1ccc(C(=O)OCC[Si](C)(C)C)cc1[N+](=O)[O-])CN(C)CC3 (stereo not given)
- fold change (FC) [16]: 75
- Drug metabolism [17]: Metabolite_Detected
- inhibition [18]: Active
- inhibition [19]: inactive
- Stability [20]: Stable
- Stability [21]: Stable
- inhibition [22]: Active

SMILES: CN1CCc2c(c(=O)oc3c(/C=N/N4CCCCC4)c(O)ccc23)C1
- Stability [6]: Unstable

SMILES: CC1(C)COC(c2c(O)ccc3c4c(c(=O)oc23)CNCC4)OC1
- inhibition [11]: Active
- degraded at 48 h, 10 µM [12]: 60%
- Stability [6]: Stable

SMILES: COc1cc2c3c(c(=O)oc2c(C2OCCCO2)c1O)CNCC3
- inhibition [2]: Active
- Stability [23]: Stable

Now from value to molecule, other results behind:

- inhibition [2]: Active
- inhibition [3]: Active
- inhibition [4]: Active
- Stability [6]: Unstable
SMILES: CC(=O)N/N=C/c1c(O)ccc2c3c(c(=O)oc12)CN(C)CC3
- Drug metabolism [1]: Metabolite detected
- growth inhibition (GI) (Homo sapiens [5]): Active

- inhibition [2]: Active
- inhibition [3]: Active
- Stability [8]: Unstable
SMILES: COc1cc2c3c(c(=O)oc2c(/C=N/NC(C)=O)c1O)CN(C)CC3
- growth inhibition (GI) (Homo sapiens [5]): inactive
- growth inhibition (GI) (Homo sapiens [7]): Active

- inhibition [2]: Active
- inhibition [11]: Active
- degraded at 48 h, 10 µM [12]: 5.1%
SMILES: O=c1oc2c(C3OCCCO3)c(O)ccc2c2c1CNCC2
- growth inhibition (GI) (5TGM1 [10]): Active

- inhibition [2]: Active
- Stability [23]: Stable
- inhibition [22]: inactive
SMILES: COc1cc2c3c(c(=O)oc2c(C2OCCCO2)c1O)CN(C)CC3
- growth inhibition (GI) (5TGM1 [14]): Active
- growth inhibition (GI) (Homo sapiens [5]): Active
- Drug metabolism [24]: 70%
- Drug metabolism [25]: 70%

- Stability [6]: Unstable
SMILES: O=c1oc2c(/C=N/N3CCCCC3)c(O)ccc2c2c1CNCC2

- inhibition [2]: Active
- inhibition [3]: Active
- Stability [6]: Stable
SMILES: CN1CCc2c(c(=O)oc3c(C4OCCCO4)c(O)ccc23)C1
- Drug metabolism [1]: Metabolite detected
- growth inhibition (GI) (5TGM1 [10]): Active
- growth inhibition (GI) (5TGM1 [14]): Active
- growth inhibition (GI) (Homo sapiens [5]): Active

- inhibition [9]: Active
- inhibition [13]: inactive
- Stability [6]: Stable
SMILES: O=Cc1c(O)ccc2c3c(c(=O)oc12)CNCC3
- growth inhibition (GI) (5TGM1 [10]): Active
- Stability [15]: Stable
